Experimental data: patent US20080057039A1, “Diagnostic and Therapeutic Treatments Related to Mitochondrial Disorders” (priority 2003, published 2008)
Entries after “also recorded” stand apart in the source; their conditions may differ.

Columns and labels:
B7.1 = test: cell surface B7.1 on C17.2 neuronal stem cells after H2O2; type: cell-based, mouse; details: C17.2 cells, 24-hr exposure, 0.25 mM
Fas (CD95) = test: cell surface Fas on C17.2 neuronal stem cells after H2O2; type: cell-based, mouse; details: C17.2 cells, 24-hr exposure, 0.25 mM
Description: Non-permeabilized cells were stained with antibodies to the cell surface receptors Fas (CD95) (Pharmingen) or with antibodies to uncoupling proteins (anti-UCP2 antibody) (Alpha Diagnostic International). Antibodies for both the isotype control and actual stain were added to the cell suspension, mixed, and then placed on ice for and incubation of 25 minutes in the dark. Subsequently the cells were centrifuged at 300×g for 5 minutes and the supernatant removed. The cells were washed one time with 100 μL of PBS/2% FBS and then transferred into flow cyotmetric tubes containing 500 μL of PBS/2% FBS for analysis.
We have measured the levels of intracellular H2O2 in these cells. […] C17.2 cells from passage 15 contained 4-fold higher amount of UCP-2 than C17.2 cells at passage 11. Ts65Dn mice and controls fed regular and fatty acid enriched diet. The effects of dietary supplementation with alpha lipoic acid (LA) and […] (ALCAR) on the Ts65Dn mouse and the strain matched control animals have been examined. […] We attempted this supplementation with old (18 months) Ts65Dn mice.
C17.2 mouse neuronal stem cells (a kind gift from Dr. Evan Schnyder, Harvard) were cultured as described in the Methods above. The cells were treated or not with H2O2 at the concentration indicated on the graphs of FIG. 2. […]

ERK = ERK activation (dual phosphorylation at threonine 202 and tyrosine 204) in SH-SY5Y cells; type: cell-based, human; details: for effect on Fas-induced ERK activation: plus inhibitor
Description: Fas engagement induces ERK activation and p35 expression in SY-SHSY cells. Fas cross-linking has been reported to activate ERK in glioma cells (Shinohara, H. et al., 2000, Cancer Research, 60:1766). […] Fas-induced ERK activation was inhibited by PD98059, but appeared to be caspase 8 independent as it was not affected by […]. ERK activation was detected within five minutes of Fas engagement, and persisted for up to 150 minutes.

caspase 8 [1] = test: caspase 8 cleavage in Jurkat cells; type: cell-based, human; details: for effect on caspase 8 cleavage: Jurkat cells stimulated through Fas, plus inhibitor
Description: (§1) As previously reported, Jurkat T cells underwent Fas-induced apoptosis (7.6+2.8% apoptotic cells in the untreated cultures versus 31.3±3.5% in the anti-Fas antibody-treated cultures) (Wilson, D. et al., 1999, Cell Lnmunol., 194:67). […] We then treated the cells with Fas Ligand (FasL) constructs, consisting of FasL fused to a linker peptide and a FLAG-tag that facilitate formation of active trimers. […] Conversely, blockade of the ERK pathway by the MEK1-specific inhibitor PD98059 had no effect on Jurkat apoptosis. […] In addition, we examined replicate populations of cells for evidence of caspase 8 cleavage as an indication of Fas-induced apoptosis, after 4 hours in culture with control antibodies or anti-Fas antibodies.
(§2) Furthermore, SH-SY5Y cells expressed dramatically less caspase 8 than did Jurkat cells, although they expressed similar levels of FLIP and of Fas. Low levels of caspase 8 expression and inefficient (or non-physiological) Fas ligation by anti-Fas antibody could have masked potential Fas-induced caspase 8 cleavage in SH-SY5Y cells. Therefore, we stimulated the cells with FasL constructs and normalized protein loading to equivalent caspase 8 (instead of equivalent total protein).

[2] = tested on: SH-SY5Y neuroblastoma cells; test: Fas-induced apoptosis, cell cycle analysis by flow cytometry; type: cell-based, human; details: for effect on apoptosis of FasL-treated neuroblastoma cells: SH-SY5Y, FasL constructs plus inhibitor
Description: (§3) SH-SY5Y neuroblastoma cells are insensitive to Fas-mediated apoptosis. We used the well-characterized Fas-positive human neuroblastoma cell line SH-SY5Y to investigate Fas signaling in neuronal cells. Because Fas is best known as an inducer of apoptosis, we began by examining anti-Fas-treated SH-SY5Y cells for evidence of Fas-induced apoptosis. Jurkat cells, a human T cell leukemia line considered a model for Fas-mediated apoptosis (Wilson, D. et al., 1999, Cell Immunol., 194:67), provided a positive control. We confirmed that SH-SY5Y cells expressed cell surface Fas by flow cytometry. We then performed cell cycle analysis by flow cytometry on untreated and anti-Fas-treated Jurkat and SH-SY5Y cells after 48 hours in culture.
as §1

Jurkat cells = test: as above; type: cell-based, human; details: for effect on apoptosis induction by FasL constructs: Jurkat cells, FasL constructs plus inhibitor
Description: as §3, §1

p35 [3] = test: Fas-induced p35 expression in SH-SY5Y cells; type: cell-based, human; details: anti-Fas antibodies plus inhibitor
Description: Sustained activation of ERK for more than 80 minutes was necessary and sufficient for NGF-inducible neurite outgrowth, and p35 upregulation driven by sustained ERK activation is an essential component of this pathway (Pang, L. et al., 1995, J. Biol. Chem., 270:13585; Harada, T. et al., 2001, Nat. Cell Biol., 3:453). Thus, we examined SH-SY5Y cells for Fas-induced p35 expression. […] Thus, Fas engagement-induced sustained ERK activation and MEKI / ERK-dependent p35 expression in SH-SY5Y neuroblastoma cells.

DRG neurons = test: dorsal root ganglia (DRG) neurite outgrowth assay; type: cell-based, mice; details: for effect on Fas-induced neurite growth: DRGs stimulated through Fas; for neurite outgrowth from DRGs: neonatal mice
Description: We have shown that engaging Fas on sensory neurons induces a rapid, extensive regenerative response. We used the dorsal root ganglia (DRG) neurite outgrowth assay to determine whether Fas engagement could induce axon regeneration in vitro. […] We cultured DRGs with anti-Fas antibodies, with isotype matched control antibodies (as a negative control) or with NGF (as a positive control).
Fas engagement induces neurite outgrowth and p35 upregulation in dorsal root ganglia (D)RG) explants. To determine whether Fas-induced activation of the ERK/p35 pathway in neuroblastoma cells correlated with neurite sprouting in primary neurons, we used the DRG neurite outgrowth assay, a well characterized model for axon regeneration from primary neurons in vitro (Harada, T. et al., 2001, Nat. Cell Biol., 3:453). DRGs are collections of sensory neuron cell bodies, together with supporting Schwann cells and fibroblasts. […] We examined Fas expression selectively on the DRG neurons by flow cytometric analysis of DRG cells positive for neuron-specific tubulin III, thus excluding Schwann cells and other non-neural cell types from the analysis. […] The uniform shift in fluorescence intensity, without the presence of distinct subpopulations, indicates uniform Fas expression on the DRG neurons (geometric mean fluorescence intensity shift from 10.95 with negative control staining to 22.39 with anti-Fas staining). DRG explants were cultured with anti-Fas antibodies, with isotype-matched control antibodies (as a negative control), or with NGF (as a positive control). […] Fas-induced neurite outgrowth was indistinguishable from NGF-induced neurite outgrowth kinetically and by morphological criteria (neurite numbers, length, and branching), and could not be differentiated by blinded observers. Fas-induced neurite growth was robust and prolific, completely filling the wells of 96-well plates after two weeks in culture. […] Thus, Fas engagement induced a rapid and prolific neurite outgrowth response in primary sensory neurons.

p35 [4] = test: p35 upregulation in DRG explants (Western blots); type: cell-based, mice; details: 24-hour stimulation, p35 normalized to actin
Description: As in SH-SY5Y neurons, Fas engagement induced p35 upregulation in DRG explants after 24-hour stimulation. […] Fas-induced neurite growth is independent of NGF and caspase 8 function, but dependent on ERK activation.

caspase 8 [5] = test: caspase 8 cleavage in SH-SY5Y cells; type: cell-based, human
Description: as §1, §2

OO [H2O2]
cell surface expression of B7.1 (B7.1): increased
cell surface expression of Fas (CD95) (Fas (CD95)): increased

COc1cccc(-c2cc(=O)c3ccccc3o2)c1N [PD98059]
effect on Fas-induced ERK activation (ERK): inhibited
effect on caspase 8 cleavage (caspase 8 [1]): unaffected
effect on apoptosis of FasL-treated neuroblastoma cells [2]: Neither IETD nor PD98059 had any effect
effect on apoptosis induction by FasL constructs (Jurkat cells): no effect
effect on Fas-induced p35 upregulation (p35 [3]): prevented
toxicity to other DRG cells such as Schwann cells (DRG neurons; DRG explants): not toxic
effect on Fas-induced neurite growth (DRG neurons): prevented
effect on NGF-induced neurite outgrowth (DRG neurons; DRGs stimulated with NGF): blocked
toxicity to DRG neurons (DRG neurons; inhibitor washed out after two days, restimulated with NGF or FasL constructs): did not kill the neurons

nerve growth factor [NGF]
p35 upregulation compared to untreated DRGs (p35 [4]): 3.3 fold
neurite outgrowth from DRGs (DRG neurons; DRG explants): sprout neurites
neurite outgrowth in dissociated DRG cultures (DRG neurons; glial growth suppressed with cytosine arabinoside): induced
neurite outgrowth from DRGs of lpr mice (DRG neurons; lpr mice, low to absent Fas expression): delayed and diminished neurite outgrowth

z-IETD-frnk
effect on Fas-induced ERK activation (ERK): not affected
effect on caspase 8 cleavage (caspase 8 [1]): reduced to background levels
effect on apoptosis of FasL-treated neuroblastoma cells [2]: Neither IETD nor PD98059 had any effect
effect on apoptosis induction by FasL constructs (Jurkat cells): completely abrogated
effect on Fas-induced neurite growth (DRG neurons): not affected; also recorded: not blocked

B1: FasL constructs: FasL fused to a linker peptide and a FLAG-tag that facilitate formation of active trimers (protein, UniProt P48023 130-281, looked up)
Tumor necrosis factor ligand …: QIGHPSPPPEKKELRKVAHLTGKSNSRSMPLEWEDTYGIVLLSGVKYKKGGLVINETGLYFVYSKVYFRGQSCNNLPLSHKVYMRNSKYPQDLVMMEGKMMSYCTTGQMWARSSYLGAVFNLTSADHLYVNVSELSLVNFEESQTFFGLYKL
modifications: linker, FLAG tag
induction of caspase 8 cleavage (caspase 8 [5]): no increase
ERK activation (ERK): triggered ERK activation
increase of caspase 8 cleavage, treated versus untreated cells (caspase 8 [1]; Jurkat cells, loading normalized to equivalent caspase 8): more than 60%
apoptotic response ([2]; SH-SY5Y cells): failed to induce any detectable apoptotic response
apoptotic cells (Jurkat cells; Jurkat, after 24 hour treatment): > 90%
neurite outgrowth from DRGs (DRG neurons; DRG explants): induced robust neurite growth
